What is called IC50 is the concentration needed to halve the response being measured.

In the experiment the target is SARS2 coronavirus 3CL protease (Severe acute respiratory syndrome coronavirus 2 (2019-nCoV) (SARS-CoV-2), UniProt P0DTD1). Briefly: SARS2 Coronavirus 3CL Protease Assay (FRET). Format: biochemical. As to conditions: SARS2 3CLPro FRET assay; 5 nM enzyme, 30 min pre-incubation with compound, 15 uM peptide substrate, 4 h room temperature.
Protocol: The enzymatic activity of SARS2 coronavirus 3CL protease was determined in a FRET (fluorescence resonance energy transfer)-based assay measuring the cleavage of a peptide substrate by recombinantly expressed and purified enzyme. Cleavage of the peptide SEQ ID NO:1 (CPC Scientific) by SARS2 3CL protease was measured in reaction buffer (50 mM Hepes pH 7.5, 0.01% Triton X-100, 0.01% BSA, 2 mM DTT). SARS2 3CL protease (5 nM final concentration) was pre-incubated with compound for 30 minutes before reaction initiation with peptide substrate (15 uM final concentration). Room temperature reactions (4 h) were quenched by addition of a high dose of inhibitor and read on an appropriate plate reader (excitation wavelength=495 nm, emission wavelength=520 nm). Data were analyzed by a standard 4 parameter fit to determine IC50 values.
As for `CC(F)(F)CC[C@H](NC(=O)[C@@H]1[C@@H]2[C@H](CN1C(=O)[C@@H](NC(=O)OCc1ccccc1)C1CCCCC1)C21CCCCC1)C(=O)C(=O)NC1CC1` [Example 66, Benzyl ((S)-1-cyclohexyl-2-((1R,2S,5S)-2-(((S)-1-(cyclopropylamino)-6,6-difluoro-1,2-dioxoheptan-3-yl)carbamoyl)-3-azaspiro[bicyclo[3.1.0]hexane-6,1'-cyclohexan]-3-yl)-2-oxoethyl)carbamate], the half-inhibitory concentration (IC50) was 9.9 nM.
The value for `CNC(=O)C(=O)[C@H](CCC(C)(F)F)NC(=O)[C@@H]1[C@@H](C(F)(F)F)CCN1C(=O)[C@@H](NC(=O)OC)C(C)(C)C` [Example 81, methyl ((S)-1-((2S,3S)-2-(((S)-6,6-difluoro-1-(methylamino)-1,2-dioxoheptan-3-yl)carbamoyl)-3-(trifluoromethyl)pyrrolidin-1-yl)-3,3-dimethyl-1-oxobutan-2-yl)carbamate] was 44 nM.
The value for `CNC(=O)C(=O)[C@H](CCC(C)(F)F)NC(=O)[C@@H]1[C@H]2CCC[C@H]2CN1C(=O)C(NC(=O)OC)C1(C(F)(F)F)CC1` (stereo partly drawn) [Example 88, methyl (2-((1S,3aR,6aS)-1-(((S)-6,6-difluoro-1-(methylamino)-1,2-dioxoheptan-3-yl)carbamoyl)hexahydrocyclopenta[c]pyrrol-2(1H)-yl)-2-oxo-1-(1-(trifluoromethyl)cyclopropy 1)ethyl)carbamate] was 21 nM; that for `CC(F)(F)CC[C@H](NC(=O)[C@@H]1CC2(CCCCC2)CN1C(=O)[C@@H](NC(=O)OC1CCCC1)C(C)(C)C)C(=O)C(=O)NC1CC1` [Example 5, Cyclopentyl ((S)-1-((S)-3-(((S)-1-(cyclopropylamino)-6,6-difluoro-1,2-dioxoheptan-3-yl)carbamoyl)-2-azaspiro[4.5]decan-2-yl)-3,3-dimethyl-1-oxobutan-2-yl)carbamate] was 81 nM.
The value for `CNC(=O)C(=O)[C@H](CCC(C)(F)F)NC(=O)[C@@H]1[C@@H]2[C@H](CN1C(=O)[C@@H](NC(=O)OC)C(C)(C)C)C2(C)C` [Example 39, Methyl ((S)-1-((1R,2S,5S)-2-(((S)-6,6-difluoro-1-(methylamino)-1,2-dioxoheptan-3-yl)carbamoyl)-6,6-dimethyl-3-azabicyclo[3.1.0]hexan-3-yl)-3,3-dimethyl-1-oxobutan-2-yl)carbamate] was 12 nM; that for `COC(=O)N[C@H](C(=O)N1C[C@@H]2CCC[C@@H]2[C@H]1C(=O)N[C@@H](CCC(C)(F)F)C(=O)C(=O)NCC(F)(F)F)C(C)(C)C` [Example 119, methyl ((S)-1-((1S,3aR,6aS)-1-(((S)-6,6-difluoro-1,2-dioxo-1-((2,2,2-trifluoroethyl)amino)heptan-3-yl)carbamoyl)hexahydrocyclopenta[c]pyrrol-2(1H)-yl)-3,3-dimethyl-1-oxobutan-2-yl)carbamate] was 77 nM; that for `COC(=O)N[C@H](C(=O)N1CCC2(CC2)C[C@H]1C(=O)N[C@@H](CCC(C)(F)F)C(=O)C(=O)NC1CC1)C(C)(C)C` [Example 29, Methyl ((S)-1-((S)-5-(((S)-1-(cyclopropylamino)-6,6-difluoro-1,2-dioxoheptan-3-yl)carbamoyl)-6-azaspiro[2.5]octan-6-yl)-3,3-dimethyl-1-oxobutan-2-yl)carbamate] was 7.7 nM.
With `COC(=O)N[C@H](C(=O)N1CC(C(F)(F)F)CCC1C(=O)N[C@@H](CCC(C)(F)F)C(=O)C(=O)NC1CC1)C(C)(C)C` (single isomer, unassigned) [Example 82, methyl ((S)-1-((2S,5S or 2R,5R)-2-(((S)-1-(cyclopropylamino)-6,6-difluoro-1,2-dioxoheptan-3-yl)carbamoyl)-5-(trifluoromethyl)piperidin-1-yl)-3,3-dimethyl-1-oxobutan-2-yl)carbamate], the IC50 is 51 nM.
To `CNC(=O)C(=O)[C@H](CCC(C)(F)F)NC(=O)[C@@H]1[C@@H]2[C@H](CN1C(=O)[C@@H](NC(=O)OC)C(C)(C)C)CC2(F)F` [Example 92, methyl ((S)-1-((1S,2S,5R)-2-(((S)-6,6-difluoro-1-(methylamino)-1,2-dioxoheptan-3-yl)carbamoyl)-7,7-difluoro-3-azabicyclo[3.2.0]heptan-3-yl)-3,3-dimethyl-1-oxobutan-2-yl)carbamate] belongs 29 nM.
To `COC(=O)N[C@H](C(=O)N1C[C@@H]2CCC[C@@H]2[C@H]1C(=O)N[C@@H](CCC(C)(F)F)C(=O)C(=O)NC1CC1)C(C)(C)C` [Example 31, Methyl ((S)-1-((1S,3aR,6aS)-1-(((S)-1-(cyclopropylamino)-6,6-difluoro-1,2-dioxoheptan-3-yl)carbamoyl)hexahydrocyclo-penta[c]pyrrol-2(1H)-yl)-3,3-dimethyl-1-oxobutan-2-yl)carbamate] belongs 10 nM.
As for `CC(C)[C@H](NC(=O)OC(C)(C)C)C(=O)N1CC2(CCCCC2)C[C@H]1C(=O)N[C@@H](CCC(C)(F)F)C(=O)C(=O)NC1CC1` [Example 15, Tert-butyl ((S)-1-((S)-3-(((S)-1-(cyclopropylamino)-6,6-difluoro-1,2-dioxoheptan-3-yl)carbamoyl)-2-azaspiro[4.5]decan-2-yl)-3-methyl-1-oxobutan-2-yl)carbamate], the concentration for half-maximal inhibition (IC50) worked out at 113 nM.
To `COC(=O)N[C@H](C(=O)N1CC2(CCOCC2)CC1C(=O)N[C@@H](CCC(C)(F)F)C(=O)C(=O)NC1CC1)C(C)(C)C` (single isomer, unassigned) [Example 28, Methyl ((S)-1-((R or S)-(3-(((S)-1-(cyclopropylamino)-6,6-difluoro-1,2-dioxoheptan-3-yl)carbamoyl)-8-oxa-2-azaspiro[4.5]decan-2-yl)-3,3-dimethyl-1-oxobutan-2-yl)carbamate] belongs 297 nM.
As to `COC(=O)N[C@H](C(=O)N1C[C@@H]2CCC[C@@H]2[C@H]1C(=O)N[C@@H](CCC(C)(F)F)C(=O)C(=O)NC1CC1)[C@@H](C)OC` [Example 118, methyl ((2S,3R)-1-((1S,3aR,6aS)-1-(((S)-1-(cyclopropylamino)-6,6-difluoro-1,2-dioxoheptan-3-yl)carbamoyl)hexahydrocyclopenta[c]pyrrol-2(1H)-yl)-3-methoxy-1-oxobutan-2-yl)carbamate], the IC50 worked out at 14 nM.
The value for `COC(=O)N[C@H](C(=O)N1CC2(C(F)(F)F)CCCC2C1C(=O)N[C@@H](CCC(C)(F)F)C(=O)C(=O)NC1CC1)C(C)(C)C` (single isomer, unassigned) [Example 98, methyl ((S)-1-((1S,3aS,6aS or 1R,3aR,6aR)-1-(((S)-1-(cyclopropylamino)-6,6-difluoro-1,2-dioxoheptan-3-yl)carbamoyl)-3a-(trifluoromethyl)hexahydrocyclopenta[c]pyrrol-2(1H)-yl)-3,3-dimethyl-1-oxobutan-2-yl)carbamate] was 77 nM; that for `COC(=O)N[C@H](C(=O)N1CC2(CCCCC2)C[C@H]1C(=O)N[C@@H](CCC(C)(F)F)C(=O)C(N)=O)C(C)(C)C` [Example 78, Methyl ((S)-1-((S)-3-(((S)-1-amino-6,6-difluoro-1,2-dioxoheptan-3-yl)carbamoyl)-2-azaspiro[4.5]decan-2-yl)-3,3-dimethyl-1-oxobutan-2-yl)carbamate] was 12 nM; that for `COC(=O)N[C@H](C(=O)N1CCC(C)(C)CC1C(=O)N[C@@H](CCC(C)(F)F)C(=O)C(=O)NC1CC1)C(C)(C)C` (single isomer, unassigned) [Example 37, Methyl ((S)-1-((R or S)-(2-(((S)-1-(cyclopropylamino)-6,6-difluoro-1,2-dioxoheptan-3-yl)carbamoyl)-4,4-dimethylpiperidin-1-yl)-3,3-dimethyl-1-oxobutan-2-yl)carbamate] was 9.2 nM.
In the case of `COC(=O)N[C@H](C(=O)N1C[C@H]2[C@@H]([C@H]1C(=O)N[C@@H](CCC(C)(F)F)C(=O)C(=O)NC1CC1)C21CCOCC1)C(C)(C)C` [Example 60, Methyl ((S)-1-((1R,2S,5S)-2-(((S)-1-(cyclopropylamino)-6,6-difluoro-1,2-dioxoheptan-3-yl)carbamoyl)tetrahydro-3-azaspiro[bicyclo[3.1.0]hexane-6,4′-pyran]-3-yl)-3,3-dimethyl-1-oxobutan-2-yl)carbamate], the half-inhibitory concentration (IC50) was 19 nM.
To `CNC(=O)C(=O)[C@H](CCC(C)(F)F)NC(=O)C1CC(C(F)(F)F)CCN1C(=O)C(NC(=O)OC)C12CC(F)(C1)C2` (single isomer, unassigned) [Example 115, methyl ((R or S)-2-((2(S or R),4(R or S))-2-(((S)-6,6-difluoro-1-(methylamino)-1,2-dioxoheptan-3-yl)carbamoyl)-4-(trifluoromethyl)piperidin-1-yl)-1-(3-fluorobicyclo[1.1.1]pentan-1-yl)-2-oxoethyl)carbamate] belongs 35 nM; to `CNC(=O)C(=O)[C@H](CCC(C)(F)F)NC(=O)[C@@H]1[C@H]2CCC[C@H]2CN1C(=O)[C@@H](NC(=O)OCC(F)F)C(C)(C)C` [Example 121, 2,2-difluoroethyl ((S)-1-((1S,3aR,6aS)-1-(((S)-6,6-difluoro-1-(methylamino)-1,2-dioxoheptan-3-yl)carbamoyl)hexahydrocyclopenta[c]pyrrol-2(1H)-yl)-3,3-dimethyl-1-oxobutan-2-yl)carbamate], 15 nM.
As to `COC(=O)N[C@H](C(=O)N1CC2(CCCCC2)C[C@H]1C(=O)N[C@@H](CCC(C)(F)F)C(=O)C(=O)NCCN1CCOCC1)C(C)(C)C` [Example 17, Methyl ((S)-1-((S)-3-(((S)-6,6-difluoro-1-((2-morpholinoethyl)amino)-1,2-dioxoheptan-3-yl)carbamoyl)-2-azaspiro[4.5]decan-2-yl)-3,3-dimethyl-1-oxobutan-2-yl)carbamate], the concentration for half-maximal inhibition (IC50) was determined as 137 nM.
`COC(=O)N[C@H](C(=O)N1C2CCC(CC2)[C@H]1C(=O)N[C@@H](CCC(C)(F)F)C(=O)C(=O)NC1CC1)C(C)(C)C` [Example 59, Methyl ((S)-1-((S)-3-(((S)-1-(cyclopropylamino)-6,6-difluoro-1,2-dioxoheptan-3-yl)carbamoyl)-2-azabicyclo[2.2.2]octan-2-yl)-3,3-dimethyl-1-oxobutan-2-yl)carbamate]: the IC50 worked out at 37 nM.
